According to patent US20120122931A1, “INDOLE DERIVATIVE OR PHARMACEUTICALLY ACCEPTABLE SALT THEREOF” (KISSEI PHARMACEUTICAL CO., LTD., priority 2009, published 2012):

Biological target: T1, rat EP1 receptor (Rattus norvegicus, UniProt P70597)
T1 construct: expressed in transfected cells; host or cells: COS-1 cells, transient transfection with Lipofectamine 2000
T1 sequence (P70597 1-405): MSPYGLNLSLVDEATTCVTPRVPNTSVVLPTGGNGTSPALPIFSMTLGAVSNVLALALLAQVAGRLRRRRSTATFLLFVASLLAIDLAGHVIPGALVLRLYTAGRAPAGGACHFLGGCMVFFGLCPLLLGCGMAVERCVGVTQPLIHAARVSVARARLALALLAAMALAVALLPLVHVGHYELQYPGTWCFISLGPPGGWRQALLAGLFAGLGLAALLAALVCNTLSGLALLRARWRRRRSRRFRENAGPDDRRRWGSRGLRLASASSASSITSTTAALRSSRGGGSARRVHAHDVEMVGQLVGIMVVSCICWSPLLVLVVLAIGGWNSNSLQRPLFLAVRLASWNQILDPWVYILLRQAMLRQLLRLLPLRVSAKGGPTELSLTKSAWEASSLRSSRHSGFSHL
Test: Test for confirmation of EP1 receptor antagonism: inhibition of prostaglandin E2-induced increase in intracellular calcium concentration (Method A or Method B)
Assay type: cell-based
Settings: rat EP1 receptor-expressing cells, prostaglandin E2 10 nM
Protocol: (1) Preparation of Rat EP1 Expression vector
Using Rat Kidney BD Marathon-Ready cDNA (Nippon Becton Dickinson Company, Ltd.) as a template, a forward primer shown in SEQ ID NO. 1, and a reverse primer shown in SEQ ID NO. 2, a first run of PCR was carried out using KOD-Plus-Ver 2.0 (Toyobo Co., Ltd.). Further, using this amplification product as a template, a forward primer shown in SEQ ID NO. 3, and a reverse primer shown in SEQ ID NO. 4, a second run of PCR was carried out in the same manner. The amplification product obtained by the second run of PCR was incorporated into a vector (pcDNA3.1 D/V5-His-TOPO (registered trademark), Invitrogen Japan K. K.). By a conventional method, the vector containing this amplification product was introduced to E. coli (One Shot TOP10 Competent Cells, Invitrogen Corporation) to transform. This transformed E. coli was cultured in an LB agar medium for one day. After the culture, colonies were selected and cultured in an LB liquid medium containing 50 μg/mL of ampicillin. After the culture, the vector was purified using a QIAprep Spin Miniprep Kit (Qiagen K. K.). The base sequence of the insertion site of this vector (SEQ ID NO. 5) was compared with the rat EP1 base sequence (Ptger1) registered as an accession number NM_013100 in well-known database (NCBI), and as a result, they all matched except for a single base. Further, the amino acid sequence translated by the base sequence completely matched the amino acid sequence of the rat EP1 receptor registered as an NCBI accession number NP_037232. Therefore, it was confirmed that the cloned gene sequence was a base sequence of the rat EP1 receptor and the obtained amino acid sequence was that of the rat EP1 receptor. The pcDNA3.1 D/V5-His-TOPO (registered trademark) to which the nucleic acid shown in SEQ ID NO. 5 had been inserted was taken as a rat EP1-expressing vector.
(2) Preparation of Rat EP1 Receptor-Expressing Cells
COS-1 cells (Dainippon Sumitomo Pharma Co., Ltd.) were cultured until it reached confluence in an incubator at 37° C. under a 5% CO2 gas condition, using a D-MEM liquid medium (high glucose and L-glutamine contained, Invitrogen Corporation) to which a penicillin-streptomycin solution (Invitrogen Corporation, final concentration: 100 U/mL as benzylpenicillin; 100 μg/mL as streptomycin) as an antibiotic, MEM nonessential amino acids (Invitrogen Corporation, final Concentration: 0.1 mM), and fetal calf serum (Sanko Junyaku Co., Ltd., final concentration: 10%) were added.
(2-2) COS-1 Cell Subculture
The cells that had reached confluence were stripped with 0.05% trypsin/0.53 mM EDTA 4Na (Invitrogen Japan K. K.) and resuspended in the above liquid medium. The resuspended cells were diluted and cultured in the above liquid medium at a spread ratio from 1:4 to 1:8.
(2-3) Preparation of Cells for Introduction of Rat EP1-Expressing Vector
The cells that had reached confluence were stripped with 0.05% trypsin/0.53 mM EDTA.4Na, and resuspended in a D-MEM liquid medium (high glucose and L-glutamine contained, Invitrogen Corporation) to which an MEM nonessential amino acid (final concentration: 0.1 mM) and fetal calf serum (final concentration: 10%) were added. In each well of a Poly D-lysine-coated 96-well microplate (BD BioCoat (registered trademark), Nippon Becton Dickinson Company, Ltd.), this resuspended cell suspension culture was prepared to be 5×10^4 cells/well in 100 μL of the liquid medium, and seeded thereon. After seeding, the cells were cultured in an incubator at 37° C. under a 5% CO2 gas condition. At a point when the cells for introduction of a rat EP1-expressing vector were adhered (about 2 hours after seeding), introduction of the rat EP1-expressing vector was carried out in the following order.
(2-4) Introduction of Rat EP1-Expressing Vector
For introduction of the rat EP1-expressing vector, Lipofectamine 2000 (Invitrogen Japan K. K.) was used. […]

[1] = Method B (Calcium kit II Fluo 4, FDSS 7000)
[2] = Method A (Fluo-4 NW, FlexStation)

| SMILES | IC50 [1] [nM] | IC50 [2] [nM] |
| --- | --- | --- |
| COc1cc2[nH]c(-c3ccccc3)c(Cc3cccc(C(=O)O)n3)c2cc1Cl [Example 16-13, 6-(5-chloro-6-methoxy-2-phenyl-1H-indol-3-ylmethyl)pyridine-2-carboxylic acid] | 36 |  |
| COc1ccc2c(Cc3cccc(C(=O)O)c3F)c(-c3ccccc3)[nH]c2c1 [Example 16-9, 2-fluoro-3-(6-methoxy-2-phenyl-1H-indol-3-ylmethyl)benzoic acid] | 41 |  |
| COc1ccc2c(Cc3cccc(C(=O)O)c3)c(-c3ccsc3)[nH]c2c1 [Example 4-12, 3-(6-methoxy-2-thiophen-3-yl-1H-indol-3-ylmethyl)benzoic acid] |  | 40 |
| O=C(O)c1cccc(Cc2c(-c3ccccc3)[nH]c3cc(Cl)ccc23)n1 [Example 4-17, 6-(6-chloro-2-phenyl-1H-indol-3-ylmethyl)pyridine-2-carboxylic acid] |  | 15 |
| COc1ccc2c(Cc3ccc(F)c(C(=O)O)c3)c(-c3ccccc3)[nH]c2c1 [Example 16-18, 2-fluoro-5-(6-methoxy-2-phenyl-1H-indol-3-ylmethyl)benzoic acid] | 30 |  |
| CCOc1cc2[nH]c(-c3ccccc3)c(Cc3cccc(C(=O)O)n3)c2cc1C [Example 16-84, 6-(6-ethoxy-5-methyl-2-phenyl-1H-indol-3-ylmethyl)pyridine-2-carboxylic acid] | 17 |  |
| COc1ccc2c(Cc3cccc(C(=O)O)n3)c(-c3ccc(F)cc3)[nH]c2c1 [Example 11-13, 6-[2-(4-fluorophenyl)-6-methoxy-1H-indol-3-ylmethyl]pyridine-2-carboxylic acid] | 31 |  |
| COc1ccc2c(Cc3cccc(C(=O)O)n3)c(-c3cc(F)c(F)c(F)c3)[nH]c2c1 [Example 16-6, 6-[6-methoxy-2-(3,4,5-trifluorophenyl)-1H-indol-3-ylmethyl]pyridine-2-carboxylic acid] | 44 |  |
| COc1cc2[nH]c(-c3cccnc3)c(Cc3cccc(C(=O)O)n3)c2cc1C [Example 16-66, 6-(6-methoxy-5-methyl-2-pyridin-3-yl-1H-indol-3-ylmethyl)pyridine-2-carboxylic acid] | 30 |  |
| Cc1ccc2c(Cc3cccc(C(=O)O)n3)c(-c3ccccc3)[nH]c2c1 [Example 4-35, 6-(6-methyl-2-phenyl-1H-indol-3-ylmethyl)pyridine-2-carboxylic acid] |  | 18 |
| CCOc1ccc2c(Cc3cccc(C(=O)O)n3)c(-c3ccccc3)[nH]c2c1 [Example 4-34, 6-(6-ethoxy-2-phenyl-1H-indol-3-ylmethyl)pyridine-2-carboxylic acid] |  | 44 |
| CCOc1ccc2c(Cc3cccc(C(=O)O)n3)c(-c3ccc(F)cc3)[nH]c2c1 [Example 16-60, 6-[6-ethoxy-2-(4-fluorophenyl)-1H-indol-3-ylmethyl]pyridine-2-carboxylic acid] | 32 |  |
| COc1cc2[nH]c(-c3ccc(F)cc3)c(Cc3cccc(C(=O)O)n3)c2cc1C [Example 16-85, 6-[2-(4-fluorophenyl)-6-methoxy-5-methyl-1H-indol-3-ylmethyl]pyridine-2-carboxylic acid] | 18 |  |
| O=C(O)c1cccc(Cc2c(-c3cccnc3)[nH]c3cc(C4CC4)ccc23)n1 [Example 16-67, 6-(6-cyclopropyl-2-pyridine-3-yl-1H-indol-3-ylmethyl)pyridine-2-carboxylic acid] | 22 |  |
| O=C(O)c1cccc(Cc2c(-c3ccccc3)[nH]c3cc(C4CC4)ccc23)n1 [Example 16-8, 6-(6-cyclopropyl-2-phenyl-1H-indol-3-ylmethyl)pyridine-2-carboxylic acid] | 32 |  |
| COc1ccc2c(Cc3cccc(C(=O)O)n3)c(-c3cncs3)[nH]c2c1 [Example 11-24, 6-(6-methoxy-2-thiazol-5-yl-1H-indol-3-ylmethyl)pyridine-2-carboxylic acid] | 41 |  |
| COc1cc2[nH]c(C(C)C)c(Cc3cccc(C(=O)O)n3)c2cc1Cl [Example 16-109, 6-(5-chloro-2-isopropyl-6-methoxy-1H-indol-3-ylmethyl)pyridine-2-carboxylic acid] | 35 |  |
| O=C(O)c1cccc(Cc2c(-c3ccsc3)[nH]c3cc(C4CC4)c(F)cc23)n1 [Example 16-75, 6-(6-cyclopropyl-5-fluoro-2-thiophen-3-yl-1H-indol-3-ylmethyl)pyridine-2-carboxylic acid] | 16 |  |
| COc1ccc2c(Cc3cccc(C(=O)O)n3)c(-c3cccs3)[nH]c2c1 [Example 11-17, 6-(6-methoxy-2-thiophen-2-yl-1H-indol-3-ylmethyl)pyridine-2-carboxylic acid] | 50 |  |
| Cc1cc2[nH]c(-c3ccccc3)c(Cc3cccc(C(=O)O)n3)c2cc1F [Example 16-53, 6-(5-fluoro-6-methyl-2-phenyl-1H-indol-3-ylmethyl)pyridine-2-carboxylic acid] | 31 |  |
| O=C(O)c1cccc(Cc2c(-c3ccc(F)cc3)[nH]c3cc(C4CC4)ccc23)n1 [Example 16-62, 6-[6-cyclopropyl-2-(4-fluorophenyl)-1H-indol-3-ylmethyl]pyridine-2-carboxylic acid] | 27 |  |
| Cc1cc2[nH]c(-c3ccccc3)c(Cc3cccc(C(=O)O)n3)c2cc1C [Example 16-44, 6-(5,6-dimethyl-2-phenyl-1H-indol-3-ylmethyl)pyridine-2-carboxylic acid] | 11 |  |
| CC(C)Cc1cn(-c2cccc(C(=O)O)n2)c2cc(Cl)ccc12 [Comparative Example, sodium 6-(6-chloro-3-isobutylindol-1-yl)pyridine-2-carboxylate, reference compound] | 476 |  |
| O=C(O)c1cccc(Cc2c(-c3ccccc3)[nH]c3cc(C(F)(F)F)ccc23)n1 [Example 11-3] |  | 42 |
| COc1ccc2c(Cc3cccc(C(=O)O)n3)c(-c3cccnc3)[nH]c2c1 [Example 11-11, 6-(6-methoxy-2-pyridin-3-yl-1H-indol-3-ylmethyl)pyridine-2-carboxylic acid] | 32 |  |
| O=C(O)c1cccc(Cc2c(-c3cccnc3)[nH]c3cc(C4CC4)c(F)cc23)n1 [Example 16-76, 6-(6-cyclopropyl-5-fluoro-2-pyridine-3-yl-1H-indol-3-ylmethyl)pyridine-2-carboxylic acid] | 20 |  |
| COc1ccc2c(Cc3cccc(C(=O)O)n3)c(-c3ccc(F)c(F)c3)[nH]c2c1 [Example 16-2, 6-[2-(3,4-difluorophenyl)-6-methoxy-1H-indol-3-ylmethyl]pyridine-2-carboxylic acid] | 23 |  |
| O=C(O)c1cccc(Cc2c(-c3ccccc3)[nH]c3cc(OC(F)F)ccc23)n1 [Example 16-73] | 23 |  |
| Cc1cc2[nH]c(-c3ccsc3)c(Cc3cccc(C(=O)O)n3)c2cc1C [Example 16-51, 6-(5,6-dimethyl-2-thiophen-3-yl-1H-indol-3-ylmethyl)pyridine-2-carboxylic acid] | 14 |  |
